The values below are quoted from earlier work in patent US20050124592A1 (priority 2002, published 2005).

Like-named read-outs stand apart in the source and are kept apart here.

One series deals with T1, progesterone receptor (Homo sapiens, UniProt P06401).
T1 sequence (P06401 1-933): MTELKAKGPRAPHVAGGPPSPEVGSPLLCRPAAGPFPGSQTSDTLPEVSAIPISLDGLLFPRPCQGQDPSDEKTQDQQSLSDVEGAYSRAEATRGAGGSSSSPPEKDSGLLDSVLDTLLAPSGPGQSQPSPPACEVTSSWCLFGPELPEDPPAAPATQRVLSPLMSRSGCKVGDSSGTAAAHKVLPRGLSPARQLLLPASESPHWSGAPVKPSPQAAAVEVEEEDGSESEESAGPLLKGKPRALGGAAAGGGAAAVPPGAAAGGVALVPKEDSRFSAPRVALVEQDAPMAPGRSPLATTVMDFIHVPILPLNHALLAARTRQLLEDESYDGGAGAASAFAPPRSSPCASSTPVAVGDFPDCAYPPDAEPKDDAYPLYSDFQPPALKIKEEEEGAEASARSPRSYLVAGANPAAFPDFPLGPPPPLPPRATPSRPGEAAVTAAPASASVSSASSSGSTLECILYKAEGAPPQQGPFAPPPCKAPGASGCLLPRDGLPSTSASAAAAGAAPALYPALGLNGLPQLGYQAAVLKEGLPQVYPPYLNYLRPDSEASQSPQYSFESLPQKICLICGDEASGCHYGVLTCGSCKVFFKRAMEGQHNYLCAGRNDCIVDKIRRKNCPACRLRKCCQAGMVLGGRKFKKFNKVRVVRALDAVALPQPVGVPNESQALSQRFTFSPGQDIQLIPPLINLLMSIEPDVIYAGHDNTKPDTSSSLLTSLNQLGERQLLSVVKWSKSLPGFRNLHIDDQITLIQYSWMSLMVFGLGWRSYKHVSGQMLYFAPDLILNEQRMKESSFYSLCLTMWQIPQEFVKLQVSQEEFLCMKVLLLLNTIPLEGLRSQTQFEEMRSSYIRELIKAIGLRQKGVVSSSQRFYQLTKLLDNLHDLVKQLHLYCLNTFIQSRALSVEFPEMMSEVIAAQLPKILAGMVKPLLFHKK

Regarding `C#C[C@]1(O)CC[C@H]2[C@@H]3[C@H](C)CC4=C(CCC(=O)C4)[C@H]3CC[C@@]21C` [tibolone, (7α,17α)-17-hydroxy-7-methyl-19-nor-17-pregn-5(10)-en-20-yn-3-one], the progestagenic activity entry on progesterone receptor is reported as “weak”. Also, the estrogenic activity result in the series with estrogen receptor is “hardly has an estrogenic activity”; in the series with estrogen receptor (listed as Tibolone) it was “weak”.
